According to ChEMBL document CHEMBL1142959, “Semisynthetic approaches to laspartomycin analogues” (2007):
Converted amounts (≈) assume the structure as drawn. Positions of bridges follow the written chain, without caps; N, C: chain ends. Non-standard residues stand in square brackets, D forms with d. Residues, ends and D or L forms follow the SMILES beside them. *: point of attachment. Lauroyl = CCCCCCCCCCCC(=O)*; Pip = O=C(O)[C@@H]1CCCCN1; Dap = NC[C@H](N)C(=O)O

What was measured:
Format in all cases: functional
Staphylococcus aureus [1] = experiment: Antimicrobial activity against methicillin-sensitive Staphylococcus aureus Smith ATCC 19636 by tube dilution method
Staphylococcus aureus [2] = experiment: Antimicrobial activity against methicillin-sensitive Staphylococcus aureus Smith ATCC 19636 by broth microdilution method
Staphylococcus aureus [3] = experiment: Antimicrobial activity against methicillin-resistant Staphylococcus aureus ATCC 43300 by broth microdilution method
Enterococcus faecalis = experiment: Antimicrobial activity against vancomycin-sensitive Enterococcus faecalis ATCC 29212 by broth microdilution method
[4] = test system: Staphylococcus epidermidis; experiment: Antimicrobial activity against methicillin-resistant Staphylococcus epidermidis ATCC 51625 by broth microdilution method
Staphylococcus aureus [5] = experiment: Antimicrobial activity against vancomycin-intermediate Staphylococcus aureus CDC HIP 5836 by broth microdilution method
Enterococcus faecium = experiment: Antimicrobial activity against vancomycin/multidrug-resistant Enterococcus faecium ATCC 51559 by broth microdilution method
[6] = Staphylococcus aureus, Smith, read-out: MIC

| Structure (SMILES) | MIC (Staphylococcus aureus [1]; [6]) [µg/mL] | further results |
| --- | --- | --- |
| CCCCCCCCCCCCCCCCS(=O)(=O)N[C@@H](Cc1ccccc1)C(=O)N[C@@H](CC(=O)O)C(=O)N[C@H]1CNC(=O)[C@@H]2CCCN2C(=O)[C@H]([C@H](C)CC)NC(=O)[C@H]([C@@H](C)O)NC(=O)CNC(=O)[C@H](CC(=O)O)NC(=O)CNC(=O)[C@H](CC(=O)O)NC(=O)CNC(=O)[C@@H]2CCCCN2C1=O | 4 (≈ 2.74 µM) | MIC (Staphylococcus aureus [2]): > 64 µg/mL; MIC (Staphylococcus aureus [3]): 8 µg/mL (≈ 5.48 µM); MIC (Enterococcus faecalis): 2 µg/mL (≈ 1.37 µM); MIC [4]: 4 µg/mL (≈ 2.74 µM); MIC (Staphylococcus aureus [5]): > 64 µg/mL; MIC (Enterococcus faecium): 4 µg/mL (≈ 2.74 µM) |
| CCCCCCCCCCCCCCC(=O)N[C@@H](Cc1ccccc1)C(=O)N[C@@H](CC(=O)O)C(=O)N[C@H]1CNC(=O)[C@@H]2CCCN2C(=O)[C@H]([C@H](C)CC)NC(=O)[C@H]([C@@H](C)O)NC(=O)CNC(=O)[C@H](CC(=O)O)NC(=O)CNC(=O)C(CC(=O)O)NC(=O)CNC(=O)[C@@H]2CCCCN2C1=O (single isomer, unassigned) | 4 (≈ 2.86 µM) | MIC (Staphylococcus aureus [2]): 4 µg/mL (≈ 2.86 µM); MIC (Staphylococcus aureus [3]): 4 µg/mL (≈ 2.86 µM); MIC (Enterococcus faecalis): 4 µg/mL (≈ 2.86 µM); MIC [4]: 4 µg/mL (≈ 2.86 µM); MIC (Staphylococcus aureus [5]): 32 µg/mL (≈ 22.9 µM); MIC (Enterococcus faecium): 8 µg/mL (≈ 5.73 µM) |
| CCCCCCCCCCCCCCC(=O)N[C@@H](CC(=O)O)C(=O)N[C@H]1CNC(=O)[C@@H]2CCCN2C(=O)[C@H]([C@H](C)CC)NC(=O)[C@H]([C@@H](C)O)NC(=O)CNC(=O)[C@H](CC(=O)O)NC(=O)CNC(=O)[C@H](CC(=O)O)NC(=O)CNC(=O)[C@@H]2CCCCN2C1=O | – | MIC (Staphylococcus aureus [1]): >128 µg/mL |
| CCCCCCCCCCCCCCC(=O)N[C@@H](Cc1c[nH]c2ccccc12)C(=O)N[C@@H](CC(=O)O)C(=O)N[C@H]1CNC(=O)[C@@H]2CCCN2C(=O)[C@H]([C@H](C)CC)NC(=O)[C@H]([C@@H](C)O)NC(=O)CNC(=O)[C@H](CC(=O)O)NC(=O)CNC(=O)[C@H](CC(=O)O)NC(=O)CNC(=O)[C@@H]2CCCCN2C1=O | – | MIC (Staphylococcus aureus [1]): 16 µg/mL (≈ 11.1 µM) |
| CCCCCCCCCCCCCCNC(=O)N[C@@H](Cc1ccccc1)C(=O)N[C@@H](CC(N)=O)C(=O)N[C@H]1CNC(=O)[C@@H]2CCCN2C(=O)[C@H]([C@H](C)CC)NC(=O)[C@H]([C@@H](C)O)NC(=O)CNC(=O)[C@H](CC(=O)O)NC(=O)CNC(=O)[C@H](CC(=O)O)NC(=O)CNC(=O)[C@@H]2CCCCN2C1=O | 4 (≈ 2.84 µM) | MIC (Staphylococcus aureus [2]): 4 µg/mL (≈ 2.84 µM); MIC (Staphylococcus aureus [3]): 4 µg/mL (≈ 2.84 µM); MIC (Enterococcus faecalis): 2 µg/mL (≈ 1.42 µM); MIC [4]: 4 µg/mL (≈ 2.84 µM); MIC (Staphylococcus aureus [5]): 8 µg/mL (≈ 5.67 µM); MIC (Enterococcus faecium): 8 µg/mL (≈ 5.67 µM) |
| CCCCCCCCCCCCCCC(=O)N[C@H]1CNC(=O)[C@@H]2CCCN2C(=O)[C@H]([C@H](C)CC)NC(=O)[C@H]([C@@H](C)O)NC(=O)CNC(=O)[C@H](CC(=O)O)NC(=O)CNC(=O)C(CC(=O)O)NC(=O)CNC(=O)[C@@H]2CCCCN2C1=O (single isomer, unassigned) | > 64 | – |
| CCCCCCCCCCCCCCC(=O)N[C@H](Cc1ccccc1)C(=O)N[C@@H](CC(=O)O)C(=O)N[C@H]1CNC(=O)[C@@H]2CCCN2C(=O)[C@H]([C@H](C)CC)NC(=O)[C@H]([C@@H](C)O)NC(=O)CNC(=O)[C@H](CC(=O)O)NC(=O)CNC(=O)C(CC(=O)O)NC(=O)CNC(=O)[C@@H]2CCCCN2C1=O (single isomer, unassigned) | 4 (≈ 2.86 µM) | – |
| CCCCCCCCCCCCCCC(=O)NCC(=O)N[C@@H](CC(=O)O)C(=O)N[C@H]1CNC(=O)[C@@H]2CCCN2C(=O)[C@H]([C@H](C)CC)NC(=O)[C@H]([C@@H](C)O)NC(=O)CNC(=O)[C@H](CC(=O)O)NC(=O)CNC(=O)C(CC(=O)O)NC(=O)CNC(=O)[C@@H]2CCCCN2C1=O (single isomer, unassigned) | > 64 | – |
| CC[C@@H](C)[C@@H]1NC(=O)[C@H]([C@@H](C)O)NC(=O)CNC(=O)[C@H](CC(=O)O)NC(=O)CNC(=O)C(CC(=O)O)NC(=O)CNC(=O)[C@@H]2CCCCN2C(=O)[C@@H](NC(=O)[C@H](CC(=O)O)NC(=O)CCCCCCCCCCOc2ccccc2)CNC(=O)[C@@H]2CCCN2C1=O (single isomer, unassigned) | > 64 | – |
| CCCCCCCCCC(=O)N[C@@H](CC(=O)O)C(=O)N[C@H]1CNC(=O)[C@@H]2CCCN2C(=O)[C@H]([C@H](C)CC)NC(=O)[C@H]([C@@H](C)O)NC(=O)CNC(=O)[C@H](CC(=O)O)NC(=O)CNC(=O)C(CC(=O)O)NC(=O)CNC(=O)[C@@H]2CCCCN2C1=O (single isomer, unassigned) | > 64 | – |
| CCCCCCCCCC(=O)N[C@@H](Cc1c[nH]c2ccccc12)C(=O)N[C@@H](CC(=O)O)C(=O)N[C@H]1CNC(=O)[C@@H]2CCCN2C(=O)[C@H]([C@H](C)CC)NC(=O)[C@H]([C@@H](C)O)NC(=O)CNC(=O)[C@H](CC(=O)O)NC(=O)CNC(=O)[C@H](CC(=O)O)NC(=O)CNC(=O)[C@@H]2CCCCN2C1=O | > 64 | – |

The next lines start with results.

| MIC (Staphylococcus aureus [1]; [6]) [µg/mL] | Structure (SMILES) | further results |
| --- | --- | --- |
| > 64 | CCCCCCCCCCCCCCC(=O)N[C@@H](C)C(=O)N[C@@H](CC(=O)O)C(=O)N[C@H]1CNC(=O)[C@@H]2CCCN2C(=O)[C@H]([C@H](C)CC)NC(=O)[C@H]([C@@H](C)O)NC(=O)CNC(=O)[C@H](CC(=O)O)NC(=O)CNC(=O)C(CC(=O)O)NC(=O)CNC(=O)[C@@H]2CCCCN2C1=O (single isomer, unassigned) | – |
| 1 (≈ 0.788 µM) | CCCCCCCCCCc1ccc(C(=O)N[C@@H](CC(=O)O)C(=O)N[C@H]2CNC(=O)[C@@H]3CCCN3C(=O)[C@H]([C@H](C)CC)NC(=O)[C@H]([C@@H](C)O)NC(=O)CNC(=O)[C@H](CC(=O)O)NC(=O)CNC(=O)C(CC(=O)O)NC(=O)CNC(=O)[C@@H]3CCCCN3C2=O)cc1 (single isomer, unassigned) | – |
| > 64 | CCCCCCCCCCCCCCC(=O)N[C@@H](Cc1c[nH]c2ccccc12)C(=O)N[C@H](CC(=O)O)C(=O)N[C@H]1CNC(=O)[C@@H]2CCCN2C(=O)[C@H]([C@H](C)CC)NC(=O)[C@H]([C@@H](C)O)NC(=O)CNC(=O)[C@H](CC(=O)O)NC(=O)CNC(=O)C(CC(=O)O)NC(=O)CNC(=O)[C@@H]2CCCCN2C1=O (single isomer, unassigned) | – |
| > 64 | CCCCCCCCCCCCCCCCS(=O)(=O)N[C@@H](Cc1c[nH]c2ccccc12)C(=O)N[C@H]1CNC(=O)[C@@H]2CCCN2C(=O)[C@H]([C@H](C)CC)NC(=O)[C@H]([C@@H](C)O)NC(=O)CNC(=O)[C@H](CC(=O)O)NC(=O)CNC(=O)[C@H](CC(=O)O)NC(=O)CNC(=O)[C@@H]2CCCCN2C1=O | – |
| 16 (≈ 11.6 µM) | CCCCCCCCCCCCCCC(=O)N[C@@H](CCCCN)C(=O)N[C@@H](CC(=O)O)C(=O)N[C@H]1CNC(=O)[C@@H]2CCCN2C(=O)[C@H]([C@H](C)CC)NC(=O)[C@H]([C@@H](C)O)NC(=O)CNC(=O)[C@H](CC(=O)O)NC(=O)CNC(=O)C(CC(=O)O)NC(=O)CNC(=O)[C@@H]2CCCCN2C1=O (single isomer, unassigned) | – |
| 8 (≈ 5.74 µM) | CCCCCCCCCCCC(=O)N[C@@H](Cc1c[nH]c2ccccc12)C(=O)N[C@@H](CC(N)=O)C(=O)N[C@H]1CNC(=O)[C@@H]2CCCN2C(=O)[C@H]([C@@H](C)CC)NC(=O)[C@H]([C@@H](C)O)NC(=O)CNC(=O)[C@H](CC(=O)O)NC(=O)CNC(=O)[C@H](CC(=O)O)NC(=O)CNC(=O)[C@@H]2CCCCN2C1=O (Lauroyl-WN[Dap][Pip]GDGDGTIP; lactam 3-C) | – |
| 2 (≈ 1.54 µM) | CCCCCCCCCCCCc1ccc(C(=O)N[C@@H](CC(=O)O)C(=O)N[C@H]2CNC(=O)[C@@H]3CCCN3C(=O)[C@H]([C@H](C)CC)NC(=O)[C@H]([C@@H](C)O)NC(=O)CNC(=O)[C@H](CC(=O)O)NC(=O)CNC(=O)C(CC(=O)O)NC(=O)CNC(=O)[C@@H]3CCCCN3C2=O)cc1 (single isomer, unassigned) | – |
| 16 (≈ 12.7 µM) | CCCCCCCCCCCCS(=O)(=O)N[C@@H](CC(N)=O)C(=O)N[C@H]1CNC(=O)[C@@H]2CCCN2C(=O)[C@H]([C@H](C)CC)NC(=O)[C@H]([C@@H](C)O)NC(=O)CNC(=O)[C@H](CC(=O)O)NC(=O)CNC(=O)[C@H](CC(=O)O)NC(=O)CNC(=O)[C@@H]2CCCCN2C1=O | – |
| 8 (≈ 6.47 µM) | CCCCCCCCCCCCOC(=O)N[C@@H](CC(N)=O)C(=O)N[C@H]1CNC(=O)[C@@H]2CCCN2C(=O)[C@H]([C@H](C)CC)NC(=O)[C@H]([C@@H](C)O)NC(=O)CNC(=O)[C@H](CC(=O)O)NC(=O)CNC(=O)[C@H](CC(=O)O)NC(=O)CNC(=O)[C@@H]2CCCCN2C1=O | – |
| 8 (≈ 5.57 µM) | CCCCCCCCCCCCCCC(=O)N[C@@H](Cc1c[nH]c2ccccc12)C(=O)N[C@@H](CC(=O)O)C(=O)N[C@H]1CNC(=O)[C@@H]2CCCN2C(=O)[C@H]([C@H](C)CC)NC(=O)[C@H]([C@@H](C)O)NC(=O)CNC(=O)[C@H](CC(=O)O)NC(=O)CNC(=O)C(CC(=O)O)NC(=O)CNC(=O)[C@@H]2CCCCN2C1=O (single isomer, unassigned) | – |
| 2 (≈ 1.6 µM) | CC[C@@H](C)[C@@H]1NC(=O)[C@H]([C@@H](C)O)NC(=O)CNC(=O)[C@H](CC(=O)O)NC(=O)CNC(=O)[C@H](CC(=O)O)NC(=O)CNC(=O)[C@@H]2CCCCN2C(=O)[C@@H](NC(=O)[C@H](CC(=O)O)NC(=O)/C=C/CCCCCCCCCC(C)C)CNC(=O)[C@@H]2CCCN2C1=O [LASPARTOMYCIN C] | – |
| 4 (≈ 2.67 µM) | CCCCCCCCCCCCCCCCS(=O)(=O)N[C@@H](Cc1c[nH]c2ccccc12)C(=O)N[C@@H](CC(=O)O)C(=O)N[C@H]1CNC(=O)[C@@H]2CCCN2C(=O)[C@H]([C@H](C)CC)NC(=O)[C@H]([C@@H](C)O)NC(=O)CNC(=O)[C@H](CC(=O)O)NC(=O)CNC(=O)[C@H](CC(=O)O)NC(=O)CNC(=O)[C@@H]2CCCCN2C1=O | – |
| 2 (≈ 1.55 µM) | CCCCCCCCCCCCCCCCNC(=O)N[C@@H](CC(N)=O)C(=O)N[C@H]1CNC(=O)[C@@H]2CCCN2C(=O)[C@H]([C@H](C)CC)NC(=O)[C@H]([C@@H](C)O)NC(=O)CNC(=O)[C@H](CC(=O)O)NC(=O)CNC(=O)[C@H](CC(=O)O)NC(=O)CNC(=O)[C@@H]2CCCCN2C1=O | – |
| 64 (≈ 50.7 µM) | CCCCCCCCCCCCCCC(=O)N[C@@H](CCC(=O)O)C(=O)N[C@H]1CNC(=O)[C@@H]2CCCN2C(=O)[C@H]([C@H](C)CC)NC(=O)[C@H]([C@@H](C)O)NC(=O)CNC(=O)[C@H](CC(=O)O)NC(=O)CNC(=O)C(CC(=O)O)NC(=O)CNC(=O)[C@@H]2CCCCN2C1=O (single isomer, unassigned) | – |
